Laboratory results taken from US20210127673A1, “HERBICIDES” (SYNGENTA PARTICIPATIONS AG, priority 2016, published 2021).

Assays:
Format in all cases: in vivo
Details in all cases: 1000 g/ha, evaluated after 13 days
Lolium perenne (LOLPE) [1] = assay: Pre-emergence herbicidal activity, Lolium perenne
Summary of the method: (§1)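 Pots of seeds were sprayed one day after sowing (pre-emergence) with compound in acetone/water (50:50) plus 0.5% Tween 20, then grown in a glasshouse at 24/16 °C day/night, 14 h light, 65% humidity. Damage scored 0–5 (5 = total damage) after 13 days.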

[2] = test system: Triticum aestivium (TRZAW); assay: Post-emergence herbicidal activity, Triticum aestivium; design: key: 5=total damage to plant; 0=no damage to plant
Summary of the method: (§2)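 Pot-grown plants sprayed 8 days after sowing with compound in acetone/water (50:50) containing 0.5% Tween 20, in a glasshouse at 24/16 °C day/night, 14 h light, 65% humidity. Damage scored 13 days after spraying on a 0–5 scale (5 = total damage, 0 = none).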

Setaria faberi (SETFA) [3] = assay: Pre-emergence herbicidal activity, Setaria faberi; design: key: 5=total damage to plant; 0=no damage to plant
Summary of the method: as §1

[4] = test system: Alopecurus myosuroides (ALOMY); assay: Pre-emergence herbicidal activity, Alopecurus myosuroides; design: key: 5=total damage to plant; 0=no damage to plant
Summary of the method: as §1

Setaria faberi (SETFA) [5] = assay: Post-emergence herbicidal activity, Setaria faberi; design: key: 5=total damage to plant; 0=no damage to plant
Summary of the method: as §2

Avena fatua (AVEFA) [6] = assay: Pre-emergence herbicidal activity, Avena fatua; design: key: 5=total damage to plant; 0=no damage to plant
Summary of the method: as §1

Lolium perenne (LOLPE) [7] = assay: Post-emergence herbicidal activity, Lolium perenne
Summary of the method: as §2

[8] = test system: Alopecurus myosuroides (ALOMY); assay: Post-emergence herbicidal activity, Alopecurus myosuroides; design: key: 5=total damage to plant; 0=no damage to plant
Summary of the method: as §2

Avena fatua (AVEFA) [9] = assay: Post-emergence herbicidal activity, Avena fatua
Summary of the method: as §2

[10] = test system: Echinochloa crus-galli (ECHCG); assay: Pre-emergence herbicidal activity, Echinochloa crus-galli; design: key: 5=total damage to plant; 0=no damage to plant
Summary of the method: as §1

[11] = test system: Echinochloa crus-galli (ECHCG); assay: Post-emergence herbicidal activity, Echinochloa crus-galli; design: key: 5=total damage to plant; 0=no damage to plant
Summary of the method: as §2

[12] = test system: Triticum aestivium (TRZAW); assay: Pre-emergence herbicidal activity, Triticum aestivium; design: key: 5=total damage to plant; 0=no damage to plant
Summary of the method: as §1

| Compound | Control of LOLPE after pre-emergence application (score 0-5) (Lolium perenne (LOLPE) [1]) | Control of TRAZW after post-emergence application (score 0-5) [2] | Control of SETFA after pre-emergence application (score 0-5) (Setaria faberi (SETFA) [3]) | Control of ALOMY after pre-emergence application (score 0-5) [4] | Control of SETFA after post-emergence application (score 0-5) (Setaria faberi (SETFA) [5]) | Control of AVEFA after pre-emergence application (score 0-5) (Avena fatua (AVEFA) [6]) | Control of LOLPE after post-emergence application (score 0-5) (Lolium perenne (LOLPE) [7]) | Control of ALOMY after post-emergence application (score 0-5) [8] | Control of AVEFA after post-emergence application (score 0-5) (Avena fatua (AVEFA) [9]) | Control of ECHCG after pre-emergence application (score 0-5) [10] | Control of ECHCG after post-emergence application (score 0-5) [11] | Control of TRAZW after pre-emergence application (score 0-5) [12] |
| --- | --- | --- | --- | --- | --- | --- | --- | --- | --- | --- | --- | --- |
| CC(C)NC(=O)Nc1ccc(-c2cncnc2)nc1C(F)(F)F [Compound B44] | 1 | 1 | 3 | 0 | 4 | 2 | 2 | 1 | 3 | 3 | 4 | 0 |
| CC(C)COC(=O)Nc1ccc(-c2cncc(F)c2)nc1C(F)(F)F [Compound B43] | 1 | 2 | 4 | 1 | 5 | 1 | 3 | 1 | 4 | 3 | 4 | 1 |
| COc1nc(-c2cncc(F)c2)ccc1NC(=O)OC(C)(C)C [Compound B78] | 1 | 0 | 4 | 0 | 5 | 0 | 1 | 0 | 2 | 2 | 2 | 0 |
| N#CC1(NC(=O)Nc2ccc(-c3cncc(F)c3)nc2C(F)(F)F)CCC1 [Compound B81] | 1 | 1 | 5 | 1 | 5 | 1 | 2 | 1 | 3 | 5 | 5 | 0 |
| CC#Cc1cncc(-c2ccc(NC(=O)OC(C)(C)C)c(C)n2)c1 [Compound B33] | 1 | 2 | 4 | 0 | 5 | 2 | 3 | 2 | 4 | 2 | 2 | 0 |
